Here are results for ten compounds from publication PMC10661096, “Cryopreservation of assay-ready hepatocyte monolayers by chemically-induced ice nucleation: preservation of hepatic function and hepatotoxicity screening capabilities” (Biomaterials Science, 2023).

Assay [1] has as its system HepG2 cells. The assay is described as follows: Post-thaw percentage cell recovery of monolayers in 96 well plates (Trypan Blue counts). Format: cell-based, Human. The following applies: −80 °C, 24 h post-thaw, additives supplemented with 10% DMSO. The protocol:
(§1) HepG2 cells (density dependent on assay) and mouse hepatocytes (30k cell per well) were plated on rat tail type I collagen (100 μg mL^−1) coated 96 well plates and incubated for 24 hours. The cryoprotectant solution was prepared in advance. Hornbeam pollen (0.8 g) was suspended in sterile water (10 mL) for 24 h at 4 °C. The solution was sterile filtered and mixed 1 : 1 with either Eagle's minimum essential base medium (HepG2) or Williams E base medium (Mouse hepatocytes) supplemented with 20% FBS and 20% DMSO (final concentration 10%) to produce the cryopreservation formulation. The cell culture medium of the cells was replaced with 100 μL of the prechilled cryopreservation formulation (4 °C) and the plates were placed on a Corning XT CoolSink 96F and in a −80 °C freezer overnight. HepG2 cells and hepatocytes were also cryopreserved with 10% DMSO alone in cell culture medium for comparison. To thaw the cells, 150 μL of warm complete/thawing cell culture medium (37 °C) was added and the plates were placed in the incubator for 12 min. […]
(§2) HepG2 cells were cryopreserved between 1.6–30k cell per well and hepatocytes at a density of 30k cell per well. […] Freeze/Thaw and non-frozen HepG2 cells were counted daily until 80–90% confluency was reached to determine proliferation rates. […]

Assay [2] deals with HepG2 cells. The assay is described as follows: Drug dose–response, resazurin reduction cell viability. Format: cell-based. The following applies: Homo sapiens, HepG2, 24 h, 24 h treatment. The protocol: Statistical analysis and data visualization were performed using GraphPad Prism 8 (La Jolla, California, USA). The Shapiro-Wilk test and Levene test were utilized to assess the normality of the data and equality of variances between groups. If the data met the assumptions of normality and equal variance, it was reported as mean ± SEM. Statistical significance between the means of 2 groups were assessed using an unpaired (independent) T-test and for 2+ groups a one-way analysis of variance (ANOVA), followed by Tukey's post hoc analysis, was used. […] Statistical significance between means was determined using Welch's t-test. The significance levels were represented as follows: not significant (ns) for p ≥ 0.05, * for p ≤ 0.05, ** for p ≤ 0.01, and **** for p ≤ 0.0001. Dose–response curves were generated using nonlinear regression with a variable slope (four parameters) fitted by the least squares regression method, without any weighting. GraphPad determined the EC50 values based on the fitting process. […] Fluorescence measurements were recorded with excitation and emission at 530/25 nm and 590/30 using a BioTek Synergy HT microplate reader. Wells with resazurin solution alone were also measured for background subtraction and cells untreated with pharmaceutically active compounds were measured as a maximum resazurin reduction value. […] Cell culture medium was replaced by cell culture media supplemented with acetaminophen (0–92.6 mM), diclofenac (0–3.4 mM), doxorubicin (0–9.2 mM), metformin (0–310 µM), phenformin (0–97.4 µM) and valproic acid (0–50 mM) and […] The cell culture medium was replaced with 100 µL of resazurin solution, prepared by dissolving 1 resazurin tablet (Scientific Laboratory Supplies, Nottingham, UK) in 50 mL of phenol-free DMEM/F-12 medium supplemented with 10% FBS and sterile filtered. The cells were incubated for 2 h in […] Fluorescence measurements were recorded with excitation and emission at 530/25 nm and 590/30 using a BioTek Synergy HT microplate reader. Wells with resazurin solution alone were also measured for background subtraction and cells untreated with pharmaceutically active compounds were measured as a maximum resazurin reduction value. Percentage cell viability was reported using the fluorescence readings using the following equation: Sample Fluorescence − Background Fluorescence x 100 Maximum (Untreated) Fluorescence − Background Fluorescence 1.7 Primary Hepatocyte Cryopreservation Mice were bred at the University of Warwick after local AWERB and Home Office approvals (PP3644080). Hepatocytes were isolated from adult (8- to 12-weeks old) male and female C57BL/6NCrl mice livers, via a two-step perfusion process. After cervical dislocation, the peritoneal cavity was open and a 27G needle was inserted into the vena cava. Perfusion was carried out through the vena cava at a flow rate of 6 mL.min-1 for 10 mins with buffers warmed S11
For orientation: Resazurin is reduced to fluorescent resorufin, in cell work by metabolically active cells.

The test system of assay [3] is primary mouse hepatocytes. Briefly: Post-thaw percentage cell recovery of monolayers in 96 well plates (Trypan Blue counts). Type of assay: cell-based. Particulars: primary mouse hepatocyte monolayers, 24 h post-thaw. The protocol: as §1, §2
For a further assay, the system named is A549 cells. Briefly: Post-thaw percentage cell recovery of monolayers in 96 well plates. Type of assay: cell-based, Human. The following applies: 24 h post-thaw. On the procedure:
°C and 150 µL of warm complete cell medium (37 °C) was added. The cells were placed in the incubator for 12 mins, to allow thawing, and the solutions were replaced with 200 µL of warm complete cell medium (37 °C). The cells were placed in the incubator for a further 24 h.
Percentage cell recovery was determined by dissociating cells with trypsin (0.25%) and EDTA (1 mM), staining the cells with trypan blue (to count membrane intact cells) and comparing cell counts immediately before and 24 h after freeze/thaw. A549 cells were cryopreserved using the same approach as confluent monolayers (20k cells/well) and varying cell densities (outlined throughout) as another comparative cell line, using Ham's F-12K (Kaighn's) Medium supplemented with 10% FBS and 1% PSA as the complete growth medium and Ham's F-12K (Kaighn's) Medium alone as the base medium. Cell recovery values were also obtained for plates containing A549 and HepG2 cells stored for over 1 month in a -80 °C freezer.
1.5 Assessing Cellular Health
HepG2 cells (7.5k cell/well) were seeded in collagen (12.7 µg/cm2) coated 96 well plates and A549 cells (7.5k cell/well) were seeded in collagen uncoated 96 well plates. The plates were freeze/thawed as described in section 1.4. […]

In assay [4] the test system is primary mouse hepatocytes. The assay is described as follows: Drug dose–response, resazurin reduction cell viability. Type of assay: cell-based. The following applies: Hepatocyte, 24 h, 24 h treatment.
Protocol: Non-frozen and freeze/thaw hepatocytes were treated with diclofenac (0–3.4 μM) and metformin (0–77.4 mM) and placed in a humidified environment at 37 °C and 5% CO2 for 24 h. The cell culture medium was replaced with 100 μL of resazurin solution and the cells were incubated for 2 h in a humidified environment at 37 °C and 5% CO2. Fluorescence measurements were recorded with excitation and emission at 530/25 nm and 590/30 using a BioTek Synergy HT microplate reader. […] Percentage cell viability was reported using the fluorescence readings using the following equation: [drawing 2]
The cell culture medium of freeze/thaw hepatocytes, produced in section 1.7, was replaced by
maintenance medium supplemented with diclofenac (0–3.4 mM) and metformin (0–77 µM)
and placed in a humidified environment at 37 °C and 5% CO2 for 24 h. The cell culture medium
(Scientific Laboratory Supplies, Nottingham, UK) in 50 mL of maintenance medium
supplemented with 10% FBS and sterile filtered. The cells were incubated for 24 h in a
humidified environment at 37 °C and 5% CO2. Fluorescence measurements were recorded with
𝑆𝑎𝑚𝑝𝑙𝑒 𝐹𝑙𝑢𝑜𝑟𝑒𝑠𝑐𝑒𝑛𝑐𝑒 − 𝐵𝑎𝑐𝑘𝑔𝑟𝑜𝑢𝑛𝑑 𝐹𝑙𝑢𝑜𝑟𝑒𝑠𝑐𝑒𝑛𝑐𝑒 x 100
𝑀𝑎𝑥𝑖𝑚𝑢𝑚 (𝑈𝑛𝑡𝑟𝑒𝑎𝑡𝑒𝑑) 𝐹𝑙𝑢𝑜𝑟𝑒𝑠𝑐𝑒𝑛𝑐𝑒 − 𝐵𝑎𝑐𝑘𝑔𝑟𝑜𝑢𝑛𝑑 𝐹𝑙𝑢𝑜𝑟𝑒𝑠𝑐𝑒𝑛𝑐𝑒
Assay [5] relates to HepG2 cells. The following applies: cited from earlier work; for Post-thaw cell recovery after preconditioning: HepG2 cells and other cell lines, increased from approximately 10–20% ref 22,23.
[6] abbreviates: Freeze/Thaw HepG2 cells (24 h post-thaw).
The mark [7] stands for this setting: Freeze/Thaw adherent primary mouse hepatocytes.
Where [8] appears, read: Non-frozen primary mouse hepatocytes.

Several values for one entry are separate records, joined by “and”; a condition that tells them apart may be missing. Equal values may be shown once.

By EC50 is commonly meant the midpoint of the concentration-response curve.

Consider `CC(C)CCC[C@@H](C)[C@H]1CC[C@H]2[C@@H]3CC=C4C[C@@H](O)CC[C@]4(C)[C@H]3CC[C@]12C.O` [cholesterol monohydrate], for which, in the assay with HepG2 cells [1], the “Post-thaw percentage cell recovery” value was approximately 60%.

For the compound `[H]/N=C(/N)N/C(=N/[H])NCCc1ccccc1` [Phenformin, phenformin], the results for the 50% effective concentration (EC50) with HepG2 cells [2] (setting [6]) and in the assay on HepG2 cells [2] (Non-frozen HepG2 cells) were 290 µM and 330 µM, respectively.

As for `C[S+](C)[O-]` [10% DMSO, dimethyl sulfoxide], the “Post-thaw percentage cell recovery” value was 10% and 12.6% in the assay on HepG2 cells [1]; 50% in assay [3]; 29% with A549 cells.

With `O=C(O)Cc1ccccc1Nc1c(Cl)cccc1Cl` [Diclofenac, diclofenac], the results for the concentration giving a half-maximal response (EC50) in assay [4] (setting [7]) and in assay [4] (setting [8]) were 880 µM and 780 µM, respectively.

Turning to `CCCC(CCC)C(=O)O` [VPA, valproic acid], the EC50 in the assay with HepG2 cells [2] (setting [6]) came out at 1790 µM; in the assay with HepG2 cells [2] (Non-frozen HepG2 cells), 2880 µM.

Turning to `CC(=O)Nc1ccc(O)cc1` [Acetaminophen, acetaminophen], the EC50 in the assay with HepG2 cells [2] (setting [6]) was found to be 11700 µM; with HepG2 cells [2] (Non-frozen HepG2 cells) it was 14200 µM.

`OC[C@H]1O[C@H](O[C@H]2O[C@H](CO)[C@@H](O)[C@H](O)[C@H]2O)[C@H](O)[C@@H](O)[C@@H]1O` [trehalose]: the “Post-thaw cell recovery after preconditioning” value in the assay on HepG2 cells [5] was 50%. For the same compound, in the assay on HepG2 cells [5] (HepG2 monolayers ref 23), the “Cell recovery after preconditioning with trehalose” value is on record as 42%.

Turning to `COc1cccc2c1C(=O)c1c(O)c3c(c(O)c1C2=O)C[C@@](O)(C(=O)CO)C[C@@H]3O[C@H]1C[C@H](N)[C@H](O)[C@H](C)O1` [Doxorubicin, doxorubicin], the values for the EC50 in the assay on HepG2 cells [2] (setting [6]) and with HepG2 cells [2] (Non-frozen HepG2 cells) were 16.3 µM and 2 µM, respectively.

In the case of `O=C(O)[C@@H]1CCCN1` [proline], in the assay on HepG2 cells [5], the “Post-thaw cell recovery after preconditioning” value is recorded as 50%.

For `CN(C)C(=N)N=C(N)N` [Metformin, metformin], the EC50 in the assay with HepG2 cells [2] (setting [6]) came out at 4280 µM; in the assay with HepG2 cells [2] (Non-frozen HepG2 cells), 3780 µM; in assay [4] (setting [7]), 600 µM; in assay [4] (setting [8]) it was 780 µM.
